Assay results reported in PubChem BioAssay AID256 (DTP/NCI, 2004).
“And” between values parts separate entries of the source, which are not always exact repeats. Equal values may be shown once. Inconclusive results and toxic doses are left out.

Test system: CD2F1 mice, L1210 leukemia ip, survival T/C
Test: NCI In Vivo Anticancer Drug Screen. Data for tumor model L1210 Leukemia (intraperitoneal) in CD2F1 (CDF1) mice
Conditions: higher = longer survival
Method in brief: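 Antitumor effect is scored in animals hosting a serially transplanted tumor. Values compare compound-dosed animals against vehicle-only controls as a simple quotient.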

[1] = endpoint: mean survival time, dose: 100.0 mg/kg/injection, schedule: Q04DX003 (ip), vehicle: saline with Tween-80
[2] = endpoint: mean survival time, dose: 200.0 mg/kg/injection, schedule: Q04DX003 (ip), vehicle: saline with Tween-80
[3] = endpoint: mean survival time, dose: 400.0 mg/kg/injection, schedule: Q04DX003 (ip), vehicle: saline with Tween-80

Which results are given for `Nc1nc(=S)c2[nH]cnc2[nH]1`?
T/C (endpoint: mean survival time, dose: 0.13 mg/kg/injection, schedule: Q01DX009 (ip), vehicle: other): 110 % of control; T/C (endpoint: mean survival time, dose: 0.25 mg/kg/injection, schedule: Q01DX009 (ip), vehicle: alkali diluted with saline): 114 % of control and 120 % of control; T/C (endpoint: mean survival time, dose: 0.25 mg/kg/injection, schedule: Q01DX009 (ip), vehicle: other): 121 % of control; T/C (endpoint: mean survival time, dose: 0.38 mg/kg/injection, schedule: Q01DX009 (ip), vehicle: acid diluted with saline): 116 % of control and 123 % of control; T/C (endpoint: mean survival time, dose: 0.5 mg/kg/injection, schedule: Q01DX005 (ip), vehicle: water): 116 % of control; T/C (endpoint: mean survival time, dose: 0.5 mg/kg/injection, schedule: Q01DX009 (ip), vehicle: alkali diluted with saline): 124 % of control; T/C (endpoint: mean survival time, dose: 0.5 mg/kg/injection, schedule: Q01DX009 (ip), vehicle: other): 121 % of control; T/C (endpoint: mean survival time, dose: 0.66 mg/kg/injection, schedule: Q01DX009 (ip), vehicle: clinical formulation): 150 % of control; T/C (endpoint: mean survival time, dose: 0.75 mg/kg/injection, schedule: Q01DX009 (ip), vehicle: acid diluted with saline): 164 % of control; T/C (endpoint: mean survival time, dose: 1.0 mg/kg/injection, schedule: Q01DX005 (ip), vehicle: alkali diluted with saline): 163 % of control; T/C (endpoint: mean survival time, dose: 1.0 mg/kg/injection, schedule: Q01DX005 (ip), vehicle: water): 120 % of control; T/C (endpoint: mean survival time, dose: 1.0 mg/kg/injection, schedule: Q01DX007 (ip), vehicle: saline): 151 % of control; T/C (endpoint: mean survival time, dose: 1.0 mg/kg/injection, schedule: Q03DX003 (ip), vehicle: saline): 152 % of control; T/C (endpoint: mean survival time, dose: 1.0 mg/kg/injection, schedule: Q04DX003 (ip), vehicle: saline): 154 % of control; T/C (endpoint: mean survival time, dose: 1.12 mg/kg/injection, schedule: Q04DX003 (ip), vehicle: acid diluted with saline): 116 % of control and 118 % of control; T/C (endpoint: mean survival time, dose: 1.2 mg/kg/injection, schedule: Q01DX009 (ip), vehicle: alkali diluted with saline): 152 % of control and 153 % of control; T/C (endpoint: mean survival time, dose: 1.47 mg/kg/injection, schedule: Q01DX009 (ip), vehicle: clinical formulation): 150 % of control; T/C (endpoint: mean survival time, dose: 1.47 mg/kg/injection, schedule: Q01DX009 (ip), vehicle: saline): 158 % of control; T/C (endpoint: mean survival time, dose: 1.5 mg/kg/injection, schedule: Q01DX009 (ip), vehicle: acid diluted with saline): 164 % of control and 171 % of control and 180 % of control; T/C (endpoint: mean survival time, dose: 1.56 mg/kg/injection, schedule: Q01DX005 (ip), vehicle: alkali diluted with saline): 159 % of control; T/C (endpoint: mean survival time, dose: 1.8 mg/kg/injection, schedule: Q01DX009 (ip), vehicle: alkali diluted with saline): 151 % of control; T/C (endpoint: mean survival time, dose: 2.0 mg/kg/injection, schedule: Q01DX005 (ip), vehicle: alkali diluted with saline): 158 % of control; T/C (endpoint: mean survival time, dose: 2.0 mg/kg/injection, schedule: Q03DX003 (ip), vehicle: saline): 160 % of control; T/C (endpoint: mean survival time, dose: 2.0 mg/kg/injection, schedule: Q04DX003 (ip), vehicle: alkali diluted with saline): 122 % of control; T/C (endpoint: mean survival time, dose: 2.0 mg/kg/injection, schedule: Q04DX003 (ip), vehicle: saline): 160 % of control; T/C (endpoint: mean survival time, dose: 2.2 mg/kg/injection, schedule: Q01DX009 (ip), vehicle: clinical formulation): 155 % of control; T/C (endpoint: mean survival time, dose: 3.0 mg/kg/injection, schedule: Q01DX009 (ip), vehicle: alkali diluted with saline): 536 % of control; T/C (endpoint: mean survival time, dose: 3.12 mg/kg/injection, schedule: Q01DX005 (ip), vehicle: alkali diluted with saline): 188 % of control; T/C (endpoint: mean survival time, dose: 4.0 mg/kg/injection, schedule: Q01DX005 (ip), vehicle: alkali diluted with saline): 150 % of control; T/C (endpoint: mean survival time, dose: 4.0 mg/kg/injection, schedule: Q01DX007 (ip), vehicle: saline): 152 % of control; T/C (endpoint: mean survival time, dose: 4.0 mg/kg/injection, schedule: Q01DX009 (ip), vehicle: acid diluted with saline): 122 % of control; T/C (endpoint: mean survival time, dose: 4.0 mg/kg/injection, schedule: Q03DX003 (ip), vehicle: saline): 156 % of control; T/C (endpoint: mean survival time, dose: 4.0 mg/kg/injection, schedule: Q04DX003 (ip), vehicle: saline): 176 % of control; T/C (endpoint: mean survival time, dose: 4.5 mg/kg/injection, schedule: Q04DX003 (ip), vehicle: acid diluted with saline): 161 % of control; T/C (endpoint: mean survival time, dose: 6.25 mg/kg/injection, schedule: Q01DX005 (ip), vehicle: alkali diluted with saline): 159 % of control; T/C (endpoint: mean survival time, dose: 9.0 mg/kg/injection, schedule: Q04DX003 (ip), vehicle: acid diluted with saline): 166 % of control; T/C (endpoint: mean survival time, dose: 12.5 mg/kg/injection, schedule: Q01DX005 (ip), vehicle: alkali diluted with saline): 119 % of control; T/C (endpoint: mean survival time, dose: 18.0 mg/kg/injection, schedule: Q04DX003 (ip), vehicle: acid diluted with saline): 176 % of control; T/C (endpoint: mean survival time, dose: 20.0 mg/kg/injection, schedule: Q04DX003 (ip), vehicle: alkali diluted with saline): 152 % of control; T/C (endpoint: mean survival time, dose: 23.0 mg/kg/injection, schedule: Q01DX001 (ip), vehicle: alkali diluted with saline): 158 % of control; T/C (endpoint: mean survival time, dose: 25.0 mg/kg/injection, schedule: Q01DX005 (ip), vehicle: alkali diluted with saline): 96 % of control; T/C (endpoint: mean survival time, dose: 31.0 mg/kg/injection, schedule: Q01DX001 (ip), vehicle: alkali diluted with saline): 161 % of control; T/C (endpoint: mean survival time, dose: 47.0 mg/kg/injection, schedule: Q01DX001 (ip), vehicle: alkali diluted with saline): 167 % of control; T/C (endpoint: median survival time, dose: 0.86 mg/kg/injection, schedule: Q01DX009 (ip), vehicle: acid diluted with saline): 152 % of control and 154 % of control; T/C (endpoint: median survival time, dose: 1.44 mg/kg/injection, schedule: Q01DX009 (ip), vehicle: acid diluted with saline): 160 % of control; T/C (endpoint: median survival time, dose: 2.4 mg/kg/injection, schedule: Q01DX009 (ip), vehicle: acid diluted with saline): 158 % of control; T/C (endpoint: median survival time, dose: 2.7 mg/kg/injection, schedule: Q04DX003 (ip), vehicle: alkali diluted with saline): 159 % of control; T/C (endpoint: median survival time, dose: 4.0 mg/kg/injection, schedule: Q01DX009 (ip), vehicle: acid diluted with saline): 151 % of control and 152 % of control; T/C (endpoint: median survival time, dose: 4.5 mg/kg/injection, schedule: Q04DX003 (ip), vehicle: alkali diluted with saline): 172 % of control; T/C (endpoint: median survival time, dose: 7.5 mg/kg/injection, schedule: Q04DX003 (ip), vehicle: alkali diluted with saline): 191 % of control; T/C (endpoint: median survival time, dose: 12.5 mg/kg/injection, schedule: Q04DX003 (ip), vehicle: alkali diluted with saline): 187 % of control; T/C (endpoint: median survival time, dose: 20.0 mg/kg/injection, schedule: Q04DX003 (ip), vehicle: alkali diluted with saline): 151 % of control; T/C (endpoint: median survival time, dose: 20.83 mg/kg/injection, schedule: Q04DX003 (ip), vehicle: alkali diluted with saline): 166 % of control; T/C (endpoint: median survival time, dose: 40.0 mg/kg/injection, schedule: Q01DX001 (ip), vehicle: alkali diluted with saline): 150 % of control and 161 % of control; T/C (endpoint: median survival time, dose: 60.0 mg/kg/injection, schedule: Q01DX001 (ip), vehicle: alkali diluted with saline): 183 % of control

Which T/C [1] does the source give for `CCCCC1CCCCC1` here?
The T/C was 95 % of control.

What about the T/C [2] of the same compound?
Its T/C is 100 % of control.

And the T/C [3]?
Its T/C is 90 % of control.

Which results are given for `CC(CN=Cc1ccccc1N)N=Cc1ccccc1N` (stereo not drawn)?
T/C (endpoint: mean survival time, dose: 50.0 mg/kg/injection, schedule: Q04DX002 (ip), vehicle: saline with Tween-80): 93 % of control; T/C (endpoint: mean survival time, dose: 100.0 mg/kg/injection, schedule: Q04DX002 (ip), vehicle: saline with Tween-80): 97 % of control; T/C (endpoint: mean survival time, dose: 200.0 mg/kg/injection, schedule: Q04DX002 (ip), vehicle: saline with Tween-80): 97 % of control; T/C (endpoint: mean survival time, dose: 400.0 mg/kg/injection, schedule: Q04DX002 (ip), vehicle: saline with Tween-80): 113 % of control

For `Nc1nc(C=O)nc2c1ncn2C1OC(CO)C(O)C1O` (stereo not drawn), which T/C (endpoint: median survival time, dose: 25.0 mg/kg/injection, schedule: Q01DX005 (ip), vehicle: water) is on record?
Its T/C is 101 % of control.

And the T/C (endpoint: median survival time, dose: 50.0 mg/kg/injection, schedule: Q01DX005 (ip), vehicle: water)?
The T/C was 117 % of control.

And the T/C (endpoint: median survival time, dose: 100.0 mg/kg/injection, schedule: Q01DX005 (ip), vehicle: water)?
Its T/C is 117 % of control.

What does the source list for `Cc1c(Cl)cccc1NC(=O)COc1ccc(Cl)cc1Cl`?
T/C [1]: 94 % of control; T/C [2]: 98 % of control; T/C [3]: 96 % of control

For `CC[N+]1(CC)N=C([O-])N(C)C1=O`, which T/C (endpoint: mean survival time, dose: 100.0 mg/kg/injection, schedule: Q01DX001 (ip), vehicle: saline) is on record?
The T/C was 103 % of control.

And the T/C (endpoint: mean survival time, dose: 200.0 mg/kg/injection, schedule: Q01DX001 (ip), vehicle: saline)?
Its T/C is 101 % of control.

What about the T/C (endpoint: mean survival time, dose: 400.0 mg/kg/injection, schedule: Q01DX001 (ip), vehicle: saline) of the same compound?
Its T/C is 97 % of control.

With `CC1=CC(=NN=c2cc(C)n([O-])c(C)c2)C=C(C)[N+]1=O` as the compound, how does the T/C (endpoint: mean survival time, dose: 12.5 mg/kg/injection, schedule: Q01DX009 (ip), vehicle: saline with Tween-80) read?
The T/C was 104 % of control.

What about the T/C (endpoint: mean survival time, dose: 12.5 mg/kg/injection, schedule: Q01DX009 (ip), vehicle: suspension in saline) of the same compound?
The T/C was 108 % of control.

What about the T/C (endpoint: mean survival time, dose: 25.0 mg/kg/injection, schedule: Q01DX009 (ip), vehicle: saline with Tween-80) of the same compound?
The T/C was 108 % of control.

And the T/C (endpoint: mean survival time, dose: 25.0 mg/kg/injection, schedule: Q01DX009 (ip), vehicle: suspension in saline)?
Its T/C is 110 % of control.

What about the T/C (endpoint: mean survival time, dose: 50.0 mg/kg/injection, schedule: Q01DX009 (ip), vehicle: saline with Tween-80) of the same compound?
Its T/C is 101 % of control.

What about the T/C (endpoint: mean survival time, dose: 50.0 mg/kg/injection, schedule: Q01DX009 (ip), vehicle: suspension in saline) of the same compound?
Its T/C is 106 % of control.

What about the T/C (endpoint: mean survival time, dose: 100.0 mg/kg/injection, schedule: Q01DX009 (ip), vehicle: suspension in saline) of the same compound?
The T/C was 104 % of control.

What about the T/C (endpoint: mean survival time, dose: 200.0 mg/kg/injection, schedule: Q01DX009 (ip), vehicle: saline with Tween-80) of the same compound?
Its T/C is 106 % of control.

And the T/C (endpoint: mean survival time, dose: 200.0 mg/kg/injection, schedule: Q01DX009 (ip), vehicle: suspension in saline)?
The T/C was 166 % of control.

Which T/C (endpoint: mean survival time, dose: 12.5 mg/kg/injection, schedule: Q04DX003 (ip), vehicle: saline with Tween-80) does the source give for `CCC1=NNC(=O)C1(Br)Br` here?
The T/C was 100 % of control.

And the T/C (endpoint: mean survival time, dose: 25.0 mg/kg/injection, schedule: Q04DX003 (ip), vehicle: saline with Tween-80)?
The T/C was 102 % of control.

And the T/C (endpoint: mean survival time, dose: 50.0 mg/kg/injection, schedule: Q04DX003 (ip), vehicle: saline with Tween-80)?
The T/C was 105 % of control.
